Results on one compound are retold here after patent US6570068B1, “Methods for maize transformation coupled with adventitious regeneration utilizing nodal section explants and mature zygotic embryos” (Mississippi State University, priority 1997, dated 2003).

In test [1] the test system is nodal ridge explants. The experiment in a line: Multiple shoot clump formation from nodal ridge explants of seedlings germinated with BA. To be noted: 2.0 mg/l BA in germination medium, 4 weeks on shoot initiation medium. It is filed as cell-based, corn. The protocol: (§1) In this experiment, the standard germination medium contained 4.3 g/l MS basal salts, DM-Vitamins (1.0 mg/l thiamine-HCl, 0.5 mg/l pyridoxine-HCl, 0.5 mg/l nicotinic acid, 100 mg/l myo-inositol), 30 g/l sucrose, (pH 5.8), and 2.0 mg/l benzyladenine (BA). The standard shoot initiation medium contained 4.3 g/l MS basal salts, DM-vitamins (1.0 mg/l thiamine-HCl, 0.5 mg/l pyridoxine-HCl, 0.5 mg/l nicotinic acid, 100 mg/l myo-inositol), 30 g/l sucrose, 8.0 g/l Phytagar, 0.25 mg/l 4-CPA (para-chlorophenoxyacetic acid), 10 mg/l glycine, 150 mg/l asparagine, and 2.0 mg/l BA. The standard root initiation medium contained 4.3 g/l MS basal salts, DM-vitamins (1.0 mg/l thiamine-HCl, 0.5 mg/l pyridoxine-HCl, 0.5 mg/l nicotinic acid, 100 mg/l myo-inositol), 30 g/l sucrose, 8.0 g/l Phytagar, and ±0.5 mg/l IBA.
As a result, those explants were easier to excise. Explants spanning the seventh node (nodal ridge),with a top excision of 0.5-1.0 mm above the ridge were excised from 4, 7, 14 or 21 day-old seedlings and placed on the shoot initiation medium for 4 weeks. After 4 weeks, 45% of the explants from 7 day-old seedlings (+BA) produced multiple shoot clumps, whereas only 24% of 7 day-old seedlings (−BA) produced multiple shoot clumps. Approximately 3% of the 4 day-old seedlings (+BA) produced multiple shoots. […]

The subject of test [2] is corn seedlings. The experiment in a line: Seedling growth in germination medium with BA. The format is in vivo. The following applies: for seedling height versus seedlings without BA: 2.0 mg/l BA in germination medium. The protocol:
as §1
As a result, those explants were easier to excise. Explants spanning the seventh node (nodal ridge),with a top excision of 0.5-1.0 mm above the ridge were excised from 4, 7, 14 or 21 day-old seedlings and placed on the shoot initiation medium for 4 weeks. After 4 weeks, 45% of the explants from 7 day-old seedlings (+BA) produced multiple shoot clumps, whereas only 24% of 7 day-old seedlings (−BA) produced multiple shoot clumps. Approximately 3% of the 4 day-old seedlings (+BA) produced multiple shoots. Most explants from older seedlings (14 or 21 days) produced only one elongated shoot or 1 shoot with multiple branches. Once placed on the standard root initiation medium, most shoots (85%) rooted and the plants produced were acclimatized and placed under greenhouse conditions where normal flowering and fruiting were observed. Only one out of 29 plants produced was abnormal (i.e., a dwarf with twisted leaves). The explants should remain on the shoot initiation medium for 4 weeks. It was discovered that if the explants are left on the shoot initiation medium for 8 weeks, floral structures appeared.

As for `c1ccc(CNc2ncnc3nc[nH]c23)cc1` [BA, benzyladenine], the “seedlings (explants) that produced multiple shoots” value in test [1] (4 day-old seedlings) is reported as “Approximately 3%”. For the same compound, in test [1] (explants from 7 day-old seedlings), the “explants that produced multiple shoot clumps” value was 45%. The entries for the “seedling height versus seedlings without BA” value in test [2] (4 day-old seedlings) and in test [2] (by 7 days) were “taller than those without BA” and “no appreciable differences in height”, respectively. Besides, the “roots at the nodal ridge” value in test [2] (seedlings grown with BA) is reported as “less roots at the nodal ridge”.
